Molecular target: human APJ receptor (Homo sapiens (Human), UniProt P35414)
Experiment: [35S]GTPγS binding assay on membranes from CHO cells stably expressing human APJ receptor
Type: biochemical
Settings: read-out: Activity hAPJ SPA EC50 IP
How it was run: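 Agonist-driven [35S]GTPγS (0.2 nM) binding was measured over 90 min at room temperature on human APJ-expressing CHO membranes with bead capture, in buffer containing 3 μM GDP, 200 mM NaCl and 5 mM MgCl2 (pH 7.5). Excess unlabelled GTPγS (100 μM) gave nonspecific signal; EC50 from non-linear fits.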

Sequence of human APJ receptor (P35414 whole entry): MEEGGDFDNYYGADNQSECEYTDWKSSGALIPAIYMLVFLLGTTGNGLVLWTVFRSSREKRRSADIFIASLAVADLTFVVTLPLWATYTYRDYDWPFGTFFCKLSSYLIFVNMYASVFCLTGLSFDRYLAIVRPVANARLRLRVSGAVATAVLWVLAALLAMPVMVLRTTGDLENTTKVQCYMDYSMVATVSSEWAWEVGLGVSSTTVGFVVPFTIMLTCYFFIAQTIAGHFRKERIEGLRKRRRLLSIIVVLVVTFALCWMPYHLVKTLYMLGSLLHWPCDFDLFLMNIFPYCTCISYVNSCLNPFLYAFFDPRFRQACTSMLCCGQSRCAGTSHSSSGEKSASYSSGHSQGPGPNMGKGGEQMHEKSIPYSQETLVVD

| Substance | EC50 |
| --- | --- |
| (1R,2S)-N-(4-(2,6-dimethoxyphenyl)-5-((R)-1,4-dioxan-2-yl)-4H-1,2,4-triazol-3-yl)-1-ethoxy-1-(5-methylpyrimidin-2-yl)propane-2-sulfonamide or (1R,2S)-N-(4-(2,6-dimethoxyphenyl)-5-((S)-1,4-dioxan-2-yl)-4H-1,2,4-triazol-3-yl)-1-ethoxy-1-(5-methylpyrimidin-2-yl)propane-2-sulfonamide [Example 203.0] | 0.033 µM |
| (1R,2S)-N-(4-(2,6-dimethoxyphenyl)-5-((R)-1,4-dioxan-2-yl)-4H-1,2,4-triazol-3-yl)-1-ethoxy-1-(5-methylpyrimidin-2-yl)propane-2-sulfonamide or (1R,2S)-N-(4-(2,6-dimethoxyphenyl)-5-((S)-1,4-dioxan-2-yl)-4H-1,2,4-triazol-3-yl)-1-ethoxy-1-(5-methypyrimidin-2-yl)propane-2-sulfonamide [Example 204.0] | 0.1 µM |
| (1R,2S)-N-(4-(2,6-dimethoxyphenyl)-5-((R)-1,4-dioxan-2-yl)-4H-1,2,4-triazol-3-yl)-1-methoxy-1-(5-methylpyrimidin-2-yl)propane-2-sulfonamide or (1R,2S)-N-(4-(2,6-dimethoxyphenyl)-5-((S)-1,4-dioxan-2-yl)-4H-1,2,4-triazol-3-yl)-1-methoxy-1-(5-methylpyrimidin-2-yl)propane-2-sulfonamide [Example 202.0] | 0.12 µM |
| (1R,2S)-N-(4-(2,6-dimethoxyphenyl)-5-((S)-tetrahydro-2H-pyran-3-yl)-4H-1,2,4-triazol-3-yl)-1-hydroxy-1-(5-methylpyrimidin-2-yl)propane-2-sulfonamide or (1R,2S)-N-(4-(2,6-dimethoxyphenyl)-5-((R)-tetrahydro-2H-pyran-3-yl)-4H-1,2,4-triazol-3-yl)-1-hydroxy-1-(5-methylpyrimidin-2-yl)propane-2-sulfonamde [Example 194.0] | 0.02 µM |
| (1R,2S)-N-(4-(2,6-dimethoxyphenyl)-5-((S)-tetrahydro-2H-pyran-3-yl)-4H-1,2,4-triazol-3-yl)-1-hydroxy-1-(5-methylpyrimidin-2-yl)propane-2-sulfonamide or (1R,2S)-N-(4-(2,6-dimethoxyphenyl)-5-((R)-tetrahydro-2H-pyran-3-yl)-4H-1,2,4-triazol-3-yl)-1-hydroxy-1-(5-methylpyrimidin-2-yl)propane-2-sulfonamide [Example 193.0] | 0.18 µM |
| (1R,2S)-N-(4-(4,6-dimethoxypyrimidin-5-yl)-5-((S)-tetrahydrofuran-2-yl)-4H-1,2,4-triazol-3-yl)-1-methoxy-1-(5-methylpyrazin-2-yl)propane-2-sulfonamide or (1R,2S)-N-(4-(4,6-dimethoxypyrimidin-5-yl)-5-((R)-tetrahydrofuran-2-yl)-4H-1,2,4-triazol-3-yl)-1-methoxy-1-(5-methylpyrazin-2-yl)propane-2-sulfonamide [Example 185.0] | 0.51 µM |
| (1R,2S)-N-(4-(4,6-dimethoxypyrimidin-5-yl)-5-((S)-tetrahydrofuran-2-yl)-4H-1,2,4-triazol-3-yl)-1-methoxy-1-(5-methylpyrazin-2-yl)propane-2-sulfonamide or (1R,2S)-N-(4-(4,6-dimethoxypyrimidin-5-yl)-5-((R)-tetrahydrofuran-2-yl)-4H-1,2,4-triazol-3-yl)-1-methoxy-1-(5-methylpyrazin-2-yl)propane-2-sulfonamide [Example 186.0] | 0.08 µM |
| (1R,2S)-N-(4-([1,1′-bi(cyclopropyl)]-1-yl)-5-((2R)-1,4-dioxan-2-yl)-4H-1,2,4-triazol-3-yl)-1-methoxy-1-(5-methyl-2-pyrazinyl)-2-propanesulfonamide or (1R,2S)-N-(4-([1,1′-bi(cyclopropyl)]-1-yl)-5-((2S)-1,4-dioxan-2-yl)-4H-1,2,4-triazol-3-yl)-1-methoxy-1-(5-methyl-2-pyrazinyl)-2-propanesulfonamide [Example 328.0] | 0.23 µM |
| (1R,2S)-N-(4-([1,1′-bi(cyclopropyl)]-1-yl)-5-((2R)-1,4-dioxan-2-yl)-4H-1,2,4-triazol-3-yl)-1-methoxy-1-(5-methyl-2-pyrazinyl)-2-propanesulfonamide or (1R,2S)-N-(4-([1,1′-bi(cyclopropyl)]-1-yl)-5-((2S)-1,4-dioxan-2-yl)-4H-1,2,4-triazol-3-yl)-1-methoxy-1-(5-methyl-2-pyrazinyl)-2-propanesulfonamide [Example 329.0] | 1.3 µM |
| (1R,2S)-N-(4-([1,1′-bi(cyclopropyl)]-1-yl)-5-((2S)-1,4-dioxan-2-yl)-4H-1,2,4-triazol-3-yl)-1-(5-chloro-2-pyrimidinyl)-1-methoxy-2-propanesulfonamide or (1R,2S)-N-(4-([1,1′-bi(cyclopropyl)]-1-yl)-5-((2R)-1,4-dioxan-2-yl)-4H-1,2,4-triazol-3-yl)-1-(5-chloro-2-pyrimidinyl)-1-methoxy-2-propanesulfonamide [Example 325.0] | 0.014 µM |
| (1R,2S)-N-(4-([1,1′-bi(cyclopropyl)]-1-yl)-5-((2S)-1,4-dioxan-2-yl)-4H-1,2,4-triazol-3-yl)-1-(5-chloro-2-pyrimidinyl)-1-methoxy-2-propanesulfonamide or (1R,2S)-N-(4-([1,1′-bi(cyclopropyl)]-1-yl)-5-((2R)-1,4-dioxan-2-yl)-4H-1,2,4-triazol-3-yl)-1-(5-chloro-2-pyrimidinyl)-1-methoxy-2-propanesulfonamide [Example 326.0] | 1.7 µM |
| (1R,2S)-N-(5-((R)-2,3-dihydrobenzofuran-2-yl)-4-(4,6-dimethoxypyrimidin-5-yl)-4H-1,2,4-triazol-3-yl)-1-methoxy-1-(5-methylpyrimidin-2-yl)propane-2-sulfonamide or (1R,2S)-N-(5-((S)-2,3-dihydrobenzofuran-2-yl)-4-(4,6-dimethoxypyrimidin-5-yl)-4H-1,2,4-triazol-3-yl)-1-methoxy-1-(5-methylpyrimidin-2-yl)propane-2-sulfonamide [Example 233.0] | 1.27 µM |

Other lines, results leading:

| EC50 | Substance |
| --- | --- |
| 0.021 µM | (1R,2S)-N-(4-(1,3-dimethoxy-2-propanyl)-5-((2R,5R)-5-methyltetrahydro-2-furanyl)-4H-1,2,4-triazol-3-yl)-1-methoxy-1-(5-methoxy-2-pyrazinyl)-2-propanesulfonamide or (1R,2S)-N-(4-(1,3-dimethoxy-2-propanyl)-5-((2S,5S)-5-methyltetrahydro-2-furanyl)-4H-1,2,4-triazol-3-yl)-1-methoxy-1-(5-methoxy-2-pyrazinyl)-2-propanesulfonamide [Example 379.0] |
| > 4.2 µM | (1R,2S)-N-(4-(2,6-dimethoxyphenyl)-5-((S)-3-oxoisoindolin-1-yl)-4H-1,2,4-triazol-3-yl)-1-methoxy-1-(5-methylpyrimidin-2-yl)propane-2-sulfonamide or (1R,2S)-N-(4-(2,6-dimethoxyphenyl)-5-((R)-3-oxoisoindolin-1-yl)-4H-1,2,4-triazol-3-yl)-1-methoxy-1-(5-methylpyrimidin-2-yl)propane-2-sulfonamide [Example 236.0] |
| 0.59 µM | (1R,2S)-N-(4-(2,6-dimethoxyphenyl)-5-((S)-3-oxoisoindolin-1-yl)-4H-1,2,4-triazol-3-yl)-1-methoxy-1-(5-methylpyrimidin-2-yl)propane-2-sulfonamide or (1R,2S)-N-(4-(2,6-dimethoxyphenyl)-5-((R)-3-oxoisoindolin-1-yl)-4H-1,2,4-triazol-3-yl)-1-methoxy-1-(5-methylpyrimidin-2-yl)propane-2-sulfonamide [Example 237.0] |
| 0.016 µM | (1R,2S)-N-(5-((R)-1,4-dioxan-2-yl)-4-(1-(pyridin-3-yl)cyclopropyl)-4H-1,2,4-triazol-3-yl)-1-(5-chloropyrimidin-2-yl)-1-methoxypropane-2-sulfonamide or (1R,2S)-N-(5-((S)-1,4-dioxan-2-yl)-4-(1-(pyridin-3-yl)cyclopropyl)-4H-1,2,4-triazol-3-yl)-1-(5-chloropyrimidin-2-yl)-1-methoxypropane-2-sulfonamide [Example 295.0] |
| 0.17 µM | (1R,2S)-N-(5-((R)-1,4-dioxan-2-yl)-4-(1-(pyridin-3-yl)cyclopropyl)-4H-1,2,4-triazol-3-yl)-1-(5-chloropyrimidin-2-yl)-1-methoxypropane-2-sulfonamide or (1R,2S)-N-(5-((S)-1,4-dioxan-2-yl)-4-(1-(pyridin-3-yl)cyclopropyl)-4H-1,2,4-triazol-3-yl)-1-(5-chloropyrimidin-2-yl)-1-methoxypropane-2-sulfonamide [Example 296.0] |
| 0.81 µM | (1R,2S)-N-(5-((R)-2,3-dihydrobenzofuran-3-yl)-4-(2,6-dimethoxyphenyl)-4H-1,2,4-triazol-3-yl)-1-methoxy-1-(5-methylpyrimidin-2-yl)propane-2-sulfonamide or (1R,2S)-N-(5-((S)-2,3-dihydrobenzofuran-3-yl)-4-(2,6-dimethoxyphenyl)-4H-1,2,4-triazol-3-yl)-1-methoxy-1-(5-methylpyrimidin-2-yl)propane-2-sulfonamide [Example 238.0] |
| 0.033 µM | (1R,2S)-N-(5-((R)-2,3-dihydrobenzofuran-3-yl)-4-(2,6-dimethoxyphenyl)-4H-1,2,4-triazol-3-yl)-1-methoxy-1-(5-methylpyrimidin-2-yl)propane-2-sulfonamide or (1R,2S)-N-(5-((S)-2,3-dihydrobenzofuran-3-yl)-4-(2,6-dimethoxyphenyl)-4H-1,2,4-triazol-3-yl)-1-methoxy-1-(5-methylpyrimidin-2-yl)propane-2-sulfonamide [Example 239.0] |
| 1.21 µM | (1R,2S)-N-(5-((S)-1,4-dioxan-2-yl)-4-(1-(methoxymethyl)cyclopropyl)-4H-1,2,4-triazol-3-yl)-1-(5-chloropyrimidin-2-yl)-1-methoxypropane-2-sulfonamide or (1R,2S)-N-(5-((R)-1,4-dioxan-2-yl)-4-(1-(methoxymethyl)cyclopropyl)-4H-1,2,4-triazol-3-yl)-1-(5-chloropyrimidin-2-yl)-1-methoxypropane-2-sulfonamide [Example 341.0] |

Source: patent US10150760B2, “Compounds for use in preparing heterocyclic triazole agonists of the APJ receptor” (AMGEN INC., priority 2016, dated 2018)
